Measured values reported in BindingDB's records for doi:10.1038/nchembio.2007.34 (GlaxoSmithKline, 2007).

Molecular target: T1, Kinesin-like protein KIF11 (Homo sapiens, UniProt P52732)
T1 sequence (P52732 whole entry): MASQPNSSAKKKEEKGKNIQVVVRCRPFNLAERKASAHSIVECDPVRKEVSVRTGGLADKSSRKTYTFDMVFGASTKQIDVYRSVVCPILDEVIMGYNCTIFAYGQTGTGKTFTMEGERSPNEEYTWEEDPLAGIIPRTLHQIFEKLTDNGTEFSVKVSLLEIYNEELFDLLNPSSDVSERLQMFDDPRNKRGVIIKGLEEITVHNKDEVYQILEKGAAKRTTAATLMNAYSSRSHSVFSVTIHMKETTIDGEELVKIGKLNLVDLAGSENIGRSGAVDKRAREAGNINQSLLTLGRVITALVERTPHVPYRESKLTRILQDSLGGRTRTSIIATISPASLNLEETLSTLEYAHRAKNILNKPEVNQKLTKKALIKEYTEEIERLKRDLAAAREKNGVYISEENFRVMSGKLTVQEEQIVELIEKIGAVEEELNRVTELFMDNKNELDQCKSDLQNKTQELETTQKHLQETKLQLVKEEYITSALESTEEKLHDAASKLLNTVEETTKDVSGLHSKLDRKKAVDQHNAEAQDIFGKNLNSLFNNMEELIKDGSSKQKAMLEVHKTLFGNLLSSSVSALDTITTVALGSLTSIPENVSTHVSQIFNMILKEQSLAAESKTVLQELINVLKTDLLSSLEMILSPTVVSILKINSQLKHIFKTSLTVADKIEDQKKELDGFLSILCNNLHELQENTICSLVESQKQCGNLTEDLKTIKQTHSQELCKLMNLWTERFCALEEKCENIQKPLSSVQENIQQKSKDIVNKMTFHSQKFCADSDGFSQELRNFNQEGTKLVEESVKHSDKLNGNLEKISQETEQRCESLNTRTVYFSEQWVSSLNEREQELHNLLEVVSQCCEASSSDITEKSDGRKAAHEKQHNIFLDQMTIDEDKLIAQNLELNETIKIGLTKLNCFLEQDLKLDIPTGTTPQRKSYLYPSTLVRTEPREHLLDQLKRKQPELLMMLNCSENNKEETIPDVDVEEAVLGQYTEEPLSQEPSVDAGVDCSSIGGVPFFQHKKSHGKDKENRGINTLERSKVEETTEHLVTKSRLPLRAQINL
Test: Wild-type HCT116
Conditions: pH 6.8
Source text: Cell proliferation assay for wild-type cells

Ki: 1.7 nM
Compound: O=C1CCc2cc(-c3ccc(C(F)(F)F)cc3)ccc2N1 [6-[4-(Trifluoromethyl)phenyl]-3,4-dihydro-2(1H)-quinolinone]
